Results taken from patent US20160193131A1, “METHOD FOR REDUCING SURFACE FREE ENERGY AND COMPOSITION HAVING REDUCED SURFACE FREE ENERGY” (KANEKA CORPORATION, priority 2013, published 2016).

Tests used:
Format in all cases: physicochemical
[1] = Particle size distribution by dynamic light scattering (micelle formation); settings: DLS
Method: In a test tube, surfactin sodium salt (hereinafter, referred to as “SFNa”) and methanol (5 mL) or ethanol (5 mL) were added so that SFNa concentration became 2 mass %. The mixture was stirred using a vortex mixer for 3 minutes. A particle size distribution of the particles which were contained in each obtained dispersion was measured using a dynamic light scattering measuring device (product name: DLS-7000, manufactured by OTSUKA ELECTRON Co., Ltd.). In the measurement, Ar laser (λ=488 nm) was used as a light source and a scattering angle was adjusted to 90°. The result of the methanol dispersion is shown by FIG. 1 and the result of the ethanol dispersion is shown by FIG. 2.
First, an association behavior of SFNa was evaluated by a dynamic light scattering method as the above-described Example 1. As FIG. 4, a micelle having an average particle diameter of 44.8±7.7 nm was observed.

[2] = Surface tension measurement at 25° C. (DY-500); settings: for surface tension reducing ability: 2 mass % in 20 vol % ethanol aqueous solution
Method: Then, an experiment for confirmation of effect of reducing surface free energy by SFNa in organic solvent was carried out. Specifically, SFNa and diethylene glycol (10 mL) was added in a test tube so that SFNa concentration became 2 mass % similarly to the above-described Example 1. The mixture was stirred using a vortex mixer for 3 minutes. The dispersion was transferred to a petri dish and left to stand. The surface tension was measured at 25° C. using a high function surface tension measuring device (“DY-500”, manufactured by Kyowa Interface Science Co., Ltd.). In addition, the surface tensions of diethylene glycol only and 2 mass % diethylene glycol solution of sodium dodecyl sulfate, i.e. “SDS”, were similarly measured as control.
An experiment for confirmation of effect of reducing surface free energy by SFNa in a mixed solvent of water and a water-miscible solvent was also carried out. Specifically, SFNa and 20 vol % ethanol aqueous solution (10 mL) was added in a test tube so that SFNa concentration became 2 mass % similarly to the above-described Example 1. The mixture was stirred using a vortex mixer for 3 minutes. In addition, 2 mass % SDS solution was obtained as control by dissolving SDS in 20 vol % ethanol aqueous solution.
In addition, the surface tension reducing ability of SFNa and SDS in 20 vol % ethanol aqueous solution was evaluated at 25° C. similarly to the above-described Example 2.
Furthermore, surface tension was measured similarly to the above-described Example 2 except that the organic solvent was changed from diethylene glycol to dimethylsulfoxide, i.e. DMSO.
An experiment for confirmation of effect of reducing surface free energy by SFNa in a mixed solvent which contained acetone as a water-miscible solvent was also carried out, since the secondary structure formation was confirmed in the above-described Example 5. Specifically, SFNa and 20 vol % or 50 vol % acetone aqueous solution (10 mL) were added in a test tube so that SFNa concentration became 1 mass % similarly to the above-described Example 1. The mixture was stirred using a vortex mixer for 3 minutes. In addition, 1 mass % SDS solution was obtained as control by dissolving SDS in 20 vol % or 50 vol % acetone aqueous solution. The dispersion was transferred to a petri dish and left to stand similarly to the above-described Example 2. The surface tension was measured at 25° C. using a high function surface tension measuring device (“DY-500”, manufactured by Kyowa Interface Science Co., Ltd.).

[3] = Standing for one day at 25° C. and polarization microscope observation of deposits
Method: In addition, the above each dispersion was left to stand for one day at 25° C. […] The depositions were observed using a polarization microscope (“ECLIPSE E600”, manufactured by NIKON CORPORATION). The result is shown as FIG. 3. […] A lamellar liquid crystal may incorporate both of a hydrophilic substance and a lipophilic substance inside, since a lamellar liquid crystal has both of a hydrophilic part and a lipophilic part.

[4] = Secondary structure formation by circular dichroism dispersion meter
Method: Similarly to the above-described Example 1, SFNa and acetone (5 mL) was added in a test tube. The mixture was stirred using a vortex mixer for 3 minutes in order to prepare 0.1 mass %, 0.5 mass % or 1 mass % SFNa solution in acetone. Then, secondary structure formation of SFNa in the prepared acetone solutions was measured using a circular dichroism dispersion meter (“J-820”, manufactured by JASCO Corporation).
Similarly to the above-described Example 5, methanol (1 mL) and SFNa were measured off in a test tube, and the mixture was stirred using a vortex mixer for 3 minutes in order to prepare 0.01 to 1 mass % SFNa solutions in methanol. Then, secondary structure formation of SFNa in the prepared […] solutions was measured using a circular dichroism dispersion meter (“J-820”, manufactured by JASCO Corporation).
Similarly to the above-described Example 5, ethanol (1 mL) and SFNa were measured off in a test tube, and the mixture was stirred using a vortex mixer for 3 minutes in order to prepare 0.05 to 1 mass % SFNa solutions in ethanol. Then, secondary structure formation of SFNa in the prepared ethanol solutions was measured using a circular dichroism dispersion meter (“J-820”, manufactured by JASCO Corporation).
Similarly to the above-described Example 5, tetrahydrofuran (1 mL) and SFNa were measured off in a test tube, and the mixture was stirred using a vortex mixer for 3 minutes in order to prepare 0.5 mass % or 1 mass % SFNa solutions in tetrahydrofuran. Then, secondary structure formation of SFNa in the prepared tetrahydrofuran solutions was measured using a circular dichroism dispersion meter (“J-820”, manufactured by JASCO Corporation).

[5] = 2 mass % in 20 vol % ethanol aqueous solution
[6] = 1 mass % in 20 vol % acetone aqueous solution
[7] = 1 mass % in 50 vol % acetone aqueous solution

Compound: surfactin sodium salt [SFNa]
- average particle diameter of micelle [1, 5]: 44.8±7.7 nm
- average particle diameter of micelle ([1]; 2 mass % in ethanol): 956.8±286.5 nm
- average particle diameter of micelle ([1]; 2 mass % in methanol): 1035.1±230.7 nm
- surface tension reducing effect [2, 6]: clearly superior to SDS
- surface tension reducing effect [2, 7]: the surface tension could be clearly reduced
- surface tension reducing ability [2]: could clearly reduce the surface tension
- Surface tension ([2]; 2 mass % in DMSO): 39.2 mN/m
- Surface tension ([2]; 2 mass % in diethylene glycol): 39.6 mN/m
- appearance of dispersion after standing ([3]; 2 mass % ethanol dispersion): there were deposits
- polarization microscope observation of deposits ([3]; 2 mass % ethanol dispersion): a Maltese Cross image which is characteristic of lamellar liquid crystal was observed
- appearance of dispersion after standing ([3]; 2 mass % methanol dispersion): remained transparent
- secondary structure formation (CD, negative peak near 200 nm) ([4]; 0.01 to 1 mass % in methanol): forms secondary structure
- secondary structure formation (CD, negative peak near 200 nm) ([4]; 0.05 to 1 mass % in ethanol): forms secondary structure
- secondary structure formation (CD, negative peak near 200 nm) ([4]; 0.1, 0.5 or 1 mass % in acetone): forms secondary structure
- secondary structure formation (CD, negative peak near 200 nm) ([4]; 0.5 or 1 mass % in tetrahydrofuran): forms secondary structure

Compound: CCCCCCCCCCCCOS(=O)(=O)[O-].[Na+] [SDS, sodium dodecyl sulfate, reference compound]
- micelle observation [1, 5]: a micelle cannot be observed
- surface tension reducing effect [2, 6]: reduced the surface tension
- surface tension reducing effect [2, 7]: could not reduce the surface tension
- surface tension reducing ability [2]: could not reduce the surface tension
- Surface tension ([2]; 2 mass % in DMSO): 43.4 mN/m
- Surface tension ([2]; 2 mass % in diethylene glycol): 44.5 mN/m
